Like-named read-outs stand apart in the source and are kept apart here.
Experiments:
[1] = target: T1, C-Raf kinase (SEQ ID NO: 2) (Homo sapiens, UniProt P04049, Y340D/Y341D); test: Biochemical Assay for C-Raf (coupled pyruvate kinase/lactate dehydrogenase assay)
T1 construct: C-Raf residues 306-end; Y340D, Y341D with; GST (N); purchased Sigma

MiaPaca-2 cells = test: MiaPaca-2 Cell Proliferation Assay; assay type: cell-based; settings: Homo sapiens
Outline: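 Viability was read as resazurin fluorescence (540 nm excitation, 600 nm emission) after 5–6 h with dye. Compounds were tested as serial dilutions in triplicate, with IC50 derived from the dose–response.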

Porcine Brain Tubulin = target: T2, Porcine Brain Tubulin (Sus scrofa, UniProt P02550+P02554); test: Biochemical Tubulin Polymerization Assay; settings: Table 3; Tubulin Biochemical assay; read-out: Tubulin Biochem (IC50 class)
T2 construct: Porcine Brain Tubulin (T240); purchased Cytoskeleton, Inc T240; BK011P; host or cells: porcine brain (tissue-purified)

HCT-116 cells = test: HCT-116 Cell Proliferation Assay; assay type: cell-based; settings: Homo sapiens
Outline: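 IC50 values come from resazurin fluorescence (540 nm excitation, 600 nm emission) added for 4 to 5 h after compound treatment. Treatment: serially diluted compound in triplicate on 375 HCT-116 cells per well in complete McCoy's 5A/10% FBS, 67 to 72 hours, 37 °C, 5% CO2.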

HPAF-II cells = test: HPAF-II Cell Proliferation Assay; assay type: cell-based; settings: Homo sapiens, HPAF-II
Outline: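 Viability read-out was resazurin fluorescence (540 nm excitation, 600 nm emission), developed 18–24 h after a 115–120 h compound exposure of 750 HPAF-II cells per well in MEM/10% FBS at 37 °C. Compound was tested as a serial dilution in triplicate, and IC50 values were calculated.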

[2] = target: T3, B-Raf kinase (SEQ ID NO: 1) (Homo sapiens, UniProt P15056); test: Biochemical Assay for B-Raf (coupled pyruvate kinase/lactate dehydrogenase assay)
T3 construct: GST (N); purchased Sigma

Pa16c cells = test: Pa16c Cell Proliferation Assay; assay type: cell-based; settings: Table 2, read-out: Inhibition of cell proliferation in Pa16c (IC50 class)
Outline: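 Proliferation read-out: resazurin fluorescence (540 nm excitation, 600 nm emission) after an extra 18 to 24 h. Before that, compound dilution series (triplicate) stayed on 750 Pa16c cells/well in complete DMEM/10% FBS for 67 to 72 h at 37° C. IC50 values derived from the curves.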

[3] = 1 mM ATP, read-out: CRAF (inhibition of biochemical activity, IC50)
[4] = Table 3, read-out: CRAF (IC50 class)
[5] = MIA PaCa-2, MiaPaca-2 cells, Table 2, read-out: Inhibition of cell proliferation in MiaPaca-2 (IC50 class)
[6] = MIA PaCa-2, Table 3, read-out: MiaPaca-2 (IC50 class)
[7] = HCT-116, HCT-116 cells, Table 2, read-out: Inhibition of cell proliferation in HCT-116 (IC50 class)
[8] = HCT-116, Table 3, read-out: HCT-116 (IC50 class)
[9] = HPAF-II cells, Table 2, read-out: Inhibition of cell proliferation in HPAF-II (IC50 class)
[10] = Table 3, read-out: HPAF-II (IC50 class)
[11] = 1 mM ATP, read-out: BRAF (inhibition of biochemical activity, IC50)
[12] = Table 3, read-out: BRAF (IC50 class)

T1 sequence (P04049 307-648 Y340D/Y341D): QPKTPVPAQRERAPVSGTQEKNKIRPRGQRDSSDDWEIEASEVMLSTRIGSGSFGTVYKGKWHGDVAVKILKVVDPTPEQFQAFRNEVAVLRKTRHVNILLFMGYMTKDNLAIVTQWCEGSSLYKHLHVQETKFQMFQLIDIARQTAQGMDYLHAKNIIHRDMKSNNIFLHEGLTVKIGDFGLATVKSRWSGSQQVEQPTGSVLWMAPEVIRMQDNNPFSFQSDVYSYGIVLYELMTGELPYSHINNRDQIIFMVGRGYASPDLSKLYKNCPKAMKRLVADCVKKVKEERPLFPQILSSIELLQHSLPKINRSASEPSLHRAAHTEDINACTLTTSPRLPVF
T3 sequence (P15056 416-766): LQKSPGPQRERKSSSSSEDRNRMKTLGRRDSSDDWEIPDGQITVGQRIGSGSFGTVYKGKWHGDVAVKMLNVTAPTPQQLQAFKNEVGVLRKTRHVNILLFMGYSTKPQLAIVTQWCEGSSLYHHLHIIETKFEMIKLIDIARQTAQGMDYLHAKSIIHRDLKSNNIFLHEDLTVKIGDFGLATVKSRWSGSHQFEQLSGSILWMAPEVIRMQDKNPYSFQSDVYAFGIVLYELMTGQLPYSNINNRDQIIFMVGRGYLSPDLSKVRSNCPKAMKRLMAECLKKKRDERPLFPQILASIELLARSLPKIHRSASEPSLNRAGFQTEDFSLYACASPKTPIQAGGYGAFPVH
T2 sequence (P02550 whole entry): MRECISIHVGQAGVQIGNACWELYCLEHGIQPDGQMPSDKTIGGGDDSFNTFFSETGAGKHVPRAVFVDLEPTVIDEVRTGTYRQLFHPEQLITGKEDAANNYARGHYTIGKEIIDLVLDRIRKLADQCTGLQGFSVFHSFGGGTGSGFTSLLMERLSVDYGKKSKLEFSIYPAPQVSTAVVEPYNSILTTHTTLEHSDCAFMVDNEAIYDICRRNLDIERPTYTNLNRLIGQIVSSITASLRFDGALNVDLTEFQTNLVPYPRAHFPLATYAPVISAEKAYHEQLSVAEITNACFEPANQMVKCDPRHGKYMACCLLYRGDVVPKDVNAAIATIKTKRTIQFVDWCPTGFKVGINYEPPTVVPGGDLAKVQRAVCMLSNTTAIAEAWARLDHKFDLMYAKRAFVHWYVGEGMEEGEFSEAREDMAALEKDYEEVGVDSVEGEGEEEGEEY
T2 sequence (P02554 whole entry): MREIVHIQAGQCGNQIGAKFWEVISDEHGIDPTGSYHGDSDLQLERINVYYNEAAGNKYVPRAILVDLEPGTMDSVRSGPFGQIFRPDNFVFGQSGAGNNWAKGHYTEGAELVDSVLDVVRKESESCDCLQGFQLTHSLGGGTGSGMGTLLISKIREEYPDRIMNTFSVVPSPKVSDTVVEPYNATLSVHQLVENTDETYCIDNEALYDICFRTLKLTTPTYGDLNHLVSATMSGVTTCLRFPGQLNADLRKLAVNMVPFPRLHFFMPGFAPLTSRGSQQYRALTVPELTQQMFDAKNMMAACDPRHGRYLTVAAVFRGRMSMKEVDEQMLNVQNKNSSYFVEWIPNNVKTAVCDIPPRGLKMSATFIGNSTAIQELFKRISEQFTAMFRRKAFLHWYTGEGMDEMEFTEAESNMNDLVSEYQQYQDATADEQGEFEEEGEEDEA

IC50 [1, 3] | IC50 [1, 4] | IC50 (MiaPaca-2 cells; [5]) | IC50 (MiaPaca-2 cells; [6]) | IC50 (Porcine Brain Tubulin) | IC50 (HCT-116 cells; [7]) | IC50 (HCT-116 cells; [8]) | IC50 [2, 11] | IC50 [2, 12] | SMILES | IC50 (HPAF-II cells; [9]) | IC50 (HPAF-II cells; [10]) | IC50 (Pa16c cells)
< 100 nM | < 100 nM | 100 to 500 nM | 100 to 500 nM | 3000 to 20000 nM | 100 to 500 nM | 100 to 500 nM | 100 to 500 nM | 100 to 500 nM | Cc1ccc(NC(=O)c2cnc(C(F)(F)F)nc2)cc1-c1ccnc(-c2ccnc(NC(=O)C3CC3)c2)c1 [Example 17] | < 100 nM | < 100 nM | < 100 nM
< 100 nM | < 100 nM | < 100 nM | < 100 nM | 3000 to 20000 nM | 100 to 500 nM | 100 to 500 nM | < 100 nM | < 100 nM | Cc1ccc(NC(=O)c2cc(C#N)cnn2)cc1-c1ccnc(-c2ccnc(NC(=O)C3CC3)c2)c1 [Example 96, 5-cyano-N-(3-(2′-(cyclopropanecarboxamido)-[2,4′-bipyridin]-4-yl)-4-methylphenyl)pyridazine-3-carboxamide] | 100 to 500 nM | 100 to 500 nM | 1000 to 10000 nM
< 100 nM | < 100 nM | < 100 nM | < 100 nM | < 3000 nM | < 100 nM | < 100 nM | < 100 nM | < 100 nM | Cc1ccc(NC(=O)c2cc(C(F)(F)F)cnn2)cc1-c1ccnc(-c2ccnc(NC(=O)C3CC3)c2)c1 [Example 67] | < 100 nM | < 100 nM | < 100 nM
< 100 nM | < 100 nM | < 100 nM | < 100 nM | < 3000 nM | < 100 nM | < 100 nM | < 100 nM | < 100 nM | Cc1ccc(NC(=O)c2cc(C(C)(F)F)cnn2)cc1-c1ccnc(-c2ccnc(NC(=O)C3CC3)c2)c1 [Example 57] | < 100 nM | < 100 nM | 100 to 500 nM
< 100 nM | < 100 nM | < 100 nM | < 100 nM | 3000 to 20000 nM | < 100 nM | < 100 nM | < 100 nM | < 100 nM | Cc1ccc(NC(=O)c2cc(C3CC3)cnn2)cc1-c1ccnc(-c2ccnc(NC(=O)C3CC3)c2)c1 [Example 43] | 100 to 500 nM | 100 to 500 nM | < 100 nM
